This is an account of results in US20100217003A1, “1,2,3,4-TETRAHYDROISOQUINOLINE DERIVATIVES HAVING EFFECTS OF PREVENTING AND TREATING DEGENERATIVE AND INFLAMMATORY DISEASES” (priority 2006, published 2010).

The subject of one test is iNOS mRNA. Briefly: Expression of iNOS genes in LPS-stimulated BV-2 cells (RT-PCR). It counts as cell-based, mouse. Here is the method:
RT-PCR for GTPCH, iNOS, TNF-α, IL-1β and COX-2
5 ? each of total RNA samples isolated from BV-2 cells were subjected to reverse-transcription (RT), and then polymerase chain reaction (PCR) for 30 cycles under the conditions of 94° C. for 30 seconds, 60° C. for 40 seconds and 72° C. for one minute. Primers used in the PCR were as follows: iNOS (forward, ATGTCCGAAG-CAAACATCAC; reverse, TAATGTC CAGGAAGTAGGTG), TNF-α (forward, CA-[…] reverse, CAGAGCAATGACTC-CAAAGTAGACCT), IL-1β (forward, […]; reverse, CAGGACAGGTAT AGATTCTTTCCTTT), COX-2 (forward, […]; reverse, […]), GTPCH (forward, GGATACCAGGAGACCAT CTCA; reverse, TAGCATGGTGC-TAGTGACAGT). RT-PCR for B2M was simultaneously performed as internal control. The PCR products were subjected to electrophoresis in a 1.5% agarose gel, thereby confirming the presence of a desired size of single band.
The assay was performed to determine whether EHMTIQ (11a) affects the expression of iNOS genes. LPS-stimulated BV-2 cell samples were treated with various concentrations of EHMTIQ (11a), and the expression of iNOS gene was estimated by RT-PCR. The results are illustrated in FIG. 6.

For another test, the system named is SK-N-BE(2)C cells. Briefly: Protective effect against neuron death due to substances released from activated microglial cells (LDH). It counts as cell-based. The conditions noted are these: culture medium from 50 EHMTIQ + LPS-treated BV-2 cells. Here is the method: Measurement of Lactate Dehydrogenase (LDH) Activity
0.26 mM NADH, 2.87 mM sodium pyruvate and 100 mM potassium phosphate buffer (pH 7.4) were added to cell culture medium (50 ? ) to make a total volume of 200 ? , and then cultured at RT. The resultant NAD^+ was measured at 340 nm for 5 minutes at 2-second intervals using a microplate spectrophotometer (SPECTRA MAX 340 pc; Molecular Devices, Menlo Park, Calif., USA).
BV-2 microglial cells were planted in a 24-well Petri dish at a density of 2.5×10^5 cells/ml. After an overnight culture, the cells were treated with […] lipopolysaccharide and EHMTIQ (11a) and then cultured for 12 more hours. At the same time, SK-N-BE(2)C cells were planted in a 24-well Petri dish at 0.5×10^5 cells/ml and cultured for 24 hours. The culture medium for SK-N-BE(2) C cells was removed and the culture medium for BV-2 was added thereto. After 24 hours, the death rate of SK-N-BE(2)C cells was measured using LDH.
The assay was performed to determine whether EHMTIQ (11a) protects a dopaminergic cell from injuries due to inflammatory substances released from an activated microglial cell. SK-N-BE(2)C cells were transferred to a culture medium containing substances released from LPS-stimulated BV-2 cells, and the cell death rate was measured by activity of LDH contained in the culture medium and compared with that in the EHMTIQ (11a)-treated BV-2 culture medium.

For the molecule `CCC(=O)N1CCc2cc(OC)c(O)cc2C1` [EHMTIQ (11a), 2-ethylcarbonyl-7-hydroxy-6-methoxy-1,2,3,4-tetrahydroisoquinoline], the “expression of iNOS genes compared to the control only treated with LPS” value in the test on iNOS mRNA (5 (unit as image)) is reported as 82±1%; with iNOS mRNA (100 (unit as image)), 24±1%. In addition, the “cell injury rate of SK-N-BE(2)C cells” value in the test with SK-N-BE(2)C cells was “reduced”.
